Literature values, collected in patent US9061040B2, “Combination therapy for breast cancer” (priority 2011, dated 2015).

What was measured:
[1] = 180-300 mg/day over 10 years
liver cancer = settings: 45 mg daily for two years, women with viral liver cirrhosis
advanced prostate cancer = settings: supplemental intake greater than 400 IU/day; current smokers or quit within the past 10 years
prostate cancer = settings: male smokers

CC1=C(/C=C/C(C)=C/C=C/C(C)=C/C=C/C=C(C)/C=C/C=C(C)/C=C/C2=C(C)CCCC2(C)C)C(C)(C)CCC1 [β-carotene]
toxicity [1]: did not show any toxicity

menaquinone [vitamin K2 (menaquinone)]
less likely to develop liver cancer (liver cancer): ~90%

vitamin E
reduction in risk of advanced prostate cancer (advanced prostate cancer): 71% | reduction of prostate cancer cases (prostate cancer; 50 mg daily versus no vitamin E): one-third reduction | new cases of prostate cancer among participants who received vitamin E (prostate cancer; 50 mg daily, 5 to 8-year intervention, 147 cases without vitamin E, 246 in total): 99 cases
